Test results taken from patent US12643887B2, “Heterocyclic derivatives with cardiomyocyte proliferation activity for treatment of heart diseases” (Tongji University, priority 2019, dated 2026).

Tests used:
human GSK3 beta = molecular target: T1, human GSK3 beta (Homo sapiens, UniProt P49841); experiment: GSK3 beta enzyme assay (ADP-Glo); assay type: biochemical; conditions: ATP 25 μM, read-out: GSK3b IC50
T1 construct: Recombinant full-length human GSK3 beta (expressed in Sf9 insect cells with an N-terminal His tag); His (N); purchased SignalChem G09-10H; host or cells: Sf9 insect cells
Protocol: 1. GSK3 Beta Enzyme Assay
The ability of compounds to inhibit human GSK3 beta kinase activities was determined using a commercially available ADP-Glo™ Kinase Assay kit (Promega, Cat #V9102) according to the manufacturer's protocol. The ADP-Glo™ Kinase Assay is a luminescent ADP detection assay that provides a universal, homogeneous, high-throughput screening method to measure kinase activity by quantifying the amount of ADP produced during a kinase reaction. The ADP-Glo™ Kinase Assay can be used to monitor the activity of virtually any ADP-generating enzymes (e.g., kinases or ATPases).
Recombinant full-length human GSK3 beta (expressed in Sf9 insect cells with an N-terminal His tag) was purchased from SignalChem (Cat #G09-10H). The GSK3 substrate peptide (sequence: […](pS)EDEEE) was purchased from SignalChem (Cat #G50-58). This assay, run in a 384-well plate format, is a generic method for measuring kinase activities using an ADP-Glo Kinase Assay Kit. The basic assay procedure involves two steps: (1) Enzymatic step: inhibitors are incubated with the kinase and then ATP (included in the ADP-Glo Kinase Assay Kit) and the GSK3 substrate peptide are added to start the enzymatic reaction; (2) Detection step: after the kinase reaction, first ADP-Glo™ Reagent is added to terminate the kinase reaction and deplete the remaining ATP. Second, the Kinase Detection Reagent is added to simultaneously convert ADP to ATP and allow the newly synthesized ATP to be measured using a luciferase/luciferin reaction. The light generated is measured using a luminometer.
(§1) Briefly, GSK3 beta (4 nM) in the enzymatic buffer solutions (40 mM Tris, pH 7.5, 20 mM MgCl2, 0.1 mg/ml BSA, 50 μM DTT) were mixed with various concentrations of inhibitors (dissolved in 100% DMSO). These solutions were incubated for 30 minutes at 25° C., and subsequently a mixture of substrate peptide and ATP was added with the final peptide and ATP concentrations at 13 μM and 25 μM, respectively. The final reaction mixture of enzyme-substrate-ATP-compound was incubated for 60 minutes at 25° C.
(§2) Afterwards ADP-Glo™ Reagent was added and the mixture was incubated at 25° C. for 60 minutes. Then Kinase Detection Reagent was added and the final mixture was incubated at 25° C. for 60 minutes. The luminescence signal of the final solution was measured on an Envision instrument (PerkinElmer). The percent (%) inhibition at each concentration of a compound is calculated relative to the luminescence signal in the Max and Min control wells contained within each assay plate. […] The concentrations and percent inhibition values for a test compound are plotted and the concentration of the compound required to achieve 50% inhibition (IC50) is determined with a four-parameter logistic dose response equation.

human CLK1 = molecular target: T2, human CLK1 (Homo sapiens, UniProt P49759); experiment: CLK1 enzyme assay (ADP-Glo); assay type: biochemical; conditions: ADP-Glo, ATP 10 μM; read-out: CLK1 IC50
T2 construct: Recombinant human CLK1 (129-end); GST (N); purchased SignalChem C57-11G; host or cells: Sf9 insect cells
Protocol: The ability of compounds to inhibit human CLK1 kinase activities was determined using a commercially available ADP-Glo™ Kinase Assay kit (Promega, Cat #V9102) according to the manufacturer's protocol.
Recombinant human CLK1 (129-end) (expressed in Sf9 insect cells with an N-terminal GST tag) was purchased from SignalChem (Cat #C57-11G). Recombinant full length human MBP (expressed in E. Coli cells with an N-terminal GST tag.) was purchased from SignalChem (Cat #M42-54G). This assay, run in a 384-well plate format, is a generic method for measuring kinase activities using an ADP-Glo Kinase Assay Kit. The basic assay procedure involves two steps: (1) Enzymatic step: inhibitors are incubated with the kinase and then ATP (included in the ADP-Glo Kinase Assay Kit) and the MBP protein are added to start the enzymatic reaction; (2) Detection step: after the kinase reaction, first ADP-Glo™ Reagent is added to terminate the kinase reaction and deplete the remaining ATP. Second, the Kinase Detection Reagent is added to simultaneously convert ADP to ATP and allow the newly synthesized ATP to be measured using a luciferase/luciferin reaction. The light generated is measured using a luminometer.
as §1, with “Briefly, CLK1 (16” for “Briefly, GSK3 beta (4”, “at 2” for “at 13”, “and 10” for “and 25”
as §2

T2 sequence (P49759 129-484 limits assumed): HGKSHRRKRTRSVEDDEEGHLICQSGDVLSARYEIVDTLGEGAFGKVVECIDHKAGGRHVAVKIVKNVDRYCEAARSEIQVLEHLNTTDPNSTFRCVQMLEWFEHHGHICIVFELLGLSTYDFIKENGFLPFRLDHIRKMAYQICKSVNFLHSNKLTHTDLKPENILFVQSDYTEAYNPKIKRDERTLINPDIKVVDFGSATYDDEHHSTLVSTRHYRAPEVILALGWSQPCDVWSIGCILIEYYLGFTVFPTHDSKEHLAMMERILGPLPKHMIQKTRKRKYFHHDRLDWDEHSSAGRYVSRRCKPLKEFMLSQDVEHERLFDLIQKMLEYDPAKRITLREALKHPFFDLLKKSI
T1 sequence (P49841 whole entry): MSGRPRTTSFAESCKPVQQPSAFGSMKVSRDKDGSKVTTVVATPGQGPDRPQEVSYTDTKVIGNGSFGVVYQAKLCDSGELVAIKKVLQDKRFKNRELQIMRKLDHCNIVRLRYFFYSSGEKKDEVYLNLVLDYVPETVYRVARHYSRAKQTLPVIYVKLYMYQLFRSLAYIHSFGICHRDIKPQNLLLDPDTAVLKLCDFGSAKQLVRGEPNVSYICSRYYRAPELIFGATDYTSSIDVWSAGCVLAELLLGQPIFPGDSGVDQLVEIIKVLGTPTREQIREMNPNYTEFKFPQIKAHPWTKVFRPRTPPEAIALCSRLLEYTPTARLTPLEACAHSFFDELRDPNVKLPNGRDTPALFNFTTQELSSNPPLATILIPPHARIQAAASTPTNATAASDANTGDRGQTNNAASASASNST

SMILES	IC50 (human GSK3 beta) [µM]	IC50 (human CLK1) [µM]
O=C1NC(N(Cc2ccccc2)c2ccccc2)=N/C1=C\c1ccc2ncsc2c1 [Example 41, (Z)-5-(benzo[d]thiazol-6-ylmethylene)-2-(benzyl(phenyl)amino)-3,5-dihydro-4H-imidazol-4-one]	1 to 10	< 0.1
O=C1/C(=C/c2ccc3ncsc3c2)N=C(N(Cc2ccccc2)c2ccccc2)N1Cc1ccccc1 [Example 42, (Z)-5-(benzo[d]thiazol-6-ylmethylene)-3-benzyl-2-(benzyl(phenyl)amino)-3,5-dihydro-4H-imidazol-4-one]	> 10	> 10
CN(C1=N/C(=C\c2ccc3ncsc3c2)C(=O)N1)c1ccc([N+](=O)[O-])cc1 [Example 43, (Z)-5-(benzo[d]thiazol-6-ylmethylene)-2-(methyl(4-nitrophenyl)amino)-3,5-dihydro-4H-imidazol-4-one]	> 10	1 to 10
CN(C1=N/C(=C\c2ccc3ncsc3c2)C(=O)N1)c1ccc(N)cc1 [Example 44, (Z)-2-((4-aminophenyl)(methyl)amino)-5-(benzo[d]thiazol-6-ylmethylene)-3,5-dihydro-4H-imidazol-4-one]	1 to 10	0.1 to 1
CC(C)NC1=N/C(=C\c2ccc3ncsc3c2)C(=O)N1C [Example 45, (Z)-5-(benzo[d]thiazol-6-ylmethylene)-2-(isopropylamino)-3-methyl-3,5-dihydro-4H-imidazol-4-one]	1 to 10	< 0.1
Cn1cnc2ccc(/C=C3\N=C(Nc4ccccc4)NC3=O)cc21 [Example 46, (Z)-5-((1-methyl-1H-benzo[d]imidazol-6-yl)methylene)-2-(phenylamino)-3,5-dihydro-4H-imidazol-4-one]	0.1 to 1	< 0.1
O=C1NC(Nc2ccc3ncsc3c2)=N/C1=C\c1ccc2c(c1)OCO2 [Example 47, (Z)-5-(benzo[d][1,3]dioxol-5-ylmethylene)-2-(benzo[d]thiazol-6-ylamino)-3,5-dihydro-4H-imidazol-4-one]	> 10	> 10
O=C1NC(Nc2ccc3ncsc3c2)=N/C1=C\c1ccc2ncsc2c1 [Example 48, (Z)-2-(benzo[d]thiazol-6-ylamino)-5-(benzo[d]thiazol-6-ylmethylene)-3,5-dihydro-4H-imidazol-4-one]	> 10	< 0.1
CC(C)NC1=N/C(=C\c2ccc3scnc3c2)C(=O)N1 [Example 49, (Z)-5-(benzo[d]thiazol-5-ylmethylene)-2-(isopropylamino)-3,5-dihydro-4H-imidazol-4-one]	> 10	> 10
O=C1NC(NC23CC4CC(CC(C4)C2)C3)=N/C1=C\c1ccc2scnc2c1 [Example 50, (Z)-2-(adamantan-1-ylamino)-5-(benzo[d]thiazol-5-ylmethylene)-3,5-dihydro-4H-imidazol-4-one]	> 10	> 10
O=C1NC(Nc2ccccc2)=N/C1=C\c1ccc2[nH]ccc2c1 [Example 51, (Z)-5-((1H-indol-5-yl)methylene)-2-(phenylamino)-3,5-dihydro-4H-imidazol-4-one]	> 10	> 10
O=C1NC(Nc2ccccc2)=N/C1=C\c1ccc2occc2c1 [Example 52, (Z)-5-(benzofuran-5-ylmethylene)-2-(phenylamino)-3,5-dihydro-4H-imidazol-4-one]	> 10	0.1 to 1
O=C1NC(Nc2ccccc2)=N/C1=C\c1ccc2ncccc2c1 [Example 53, (Z)-2-(phenylamino)-5-(quinolin-6-ylmethylene)-3,5-dihydro-4H-imidazol-4-one]	> 10	< 0.1
O=C1NC(Nc2ccccc2)=N/C1=C\c1ccc2cn[nH]c2c1 [Example 54, (Z)-5-((1H-indazol-6-yl)methylene)-2-(phenylamino)-3,5-dihydro-4H-imidazol-4-one]	> 10	> 10
O=C1NC(Nc2ccccc2)=N/C1=C\c1ccc2[nH]ncc2c1 [Example 55, (Z)-5-((1H-indazol-5-yl)methylene)-2-(phenylamino)-3,5-dihydro-4H-imidazol-4-one]	0.1 to 1	< 0.1
